Reference: ChEMBL document CHEMBL4431367, “Role of a gitogenin-type steroidal saponin (3-O-β-d-glucopyranosyl (1→2)-β-d-glucopyranosyl (1→4)-β-d-galactopyranoside-25R,5α-spirostane-2α,3β-diol), isolated from the leaves of Malvastrum coromandelianum in regulating thyrotoxicosis in rats” (2016)
The source made the active and inactive calls. No cut-off for these calls is given here.

Columns and labels:
Rattus norvegicus [1] = assay: Antithyroid activity in L-T4-induced Wistar albino rat model of hyperthyroidism assessed as serum T3 level at 30 mg/kg, po qd post 12 days of L-T4 challenge measured after 15 days in presence of [125I]-T3 by RIA (reference value: 2.31 +/- 0.53 ng/ml); type: functional
Rattus norvegicus [2] = assay: Antithyroid activity in L-T4-induced Wistar albino rat model of hyperthyroidism assessed as serum T3 level at 20 mg/kg, po qd post 12 days of L-T4 challenge measured after 15 days in presence of [125I]-T3 by RIA (reference value: 2.31 +/- 0.53 ng/ml); type: functional
Rattus norvegicus [3] = assay: Antithyroid activity in L-T4-induced Wistar albino rat model of hyperthyroidism assessed as reduction in T4 level at 20 mg/kg, po qd post 12 days of L-T4 challenge measured after 15 days in presence of [125I]-T4 by RIA; type: functional
Rattus norvegicus [4] = assay: Antioxidant activity in L-T4-induced Wistar albino rat model of hyperthyroidism assessed as reduction in total GSH content per mg of protein at 20 mg/kg, po qd administered post 12 days of L-T4 challenge measured after 15 days by Ellman's method; type: functional, organism-based
Rattus norvegicus [5] = assay: Antithyroid activity in L-T4-induced Wistar albino rat model of hyperthyroidism assessed as inhibition of hepatic 5'-monodeiodinase 1 activity by measuring reduction in T3 level using T4 as substrate at 20 mg/kg, po qd post 12 days of L-T4 challenge measured after 15 days in presence of [125I]-T3 by RIA; type: functional
Rattus norvegicus [6] = assay: Antithyroid activity in L-T4-induced Wistar albino rat model of hyperthyroidism assessed as decrease in body weight loss at 20 mg/kg, po qd post 12 days of L-T4 challenge measured after 15 days; type: functional, organism-based
Rattus norvegicus [7] = assay: Antioxidant activity in L-T4-induced Wistar albino rat model of hyperthyroidism assessed as lipid peroxidation level by measuring MDA formation per mg protein at 10 mg/kg, po qd post 12 days of L-T4 challenge measured after 15 days by TBARS assay (reference value: 1.34 +/- 0.19 nM/hr); type: functional
Rattus norvegicus [8] = assay: Antithyroid activity in L-T4-induced Wistar albino rat model of hyperthyroidism assessed as serum T4 level at 20 mg/kg, po qd post 12 days of L-T4 challenge measured after 15 days in presence of [125I]-T4 by RIA (reference value: 92.14 +/- 3.45 ng/ml); type: functional
Rattus norvegicus [9] = assay: Antioxidant activity in L-T4-induced Wistar albino rat model of hyperthyroidism assessed as lipid peroxidation level by measuring MDA formation per mg protein at 20 mg/kg, po qd post 12 days of L-T4 challenge measured after 15 days by TBARS assay (reference value: 1.34 +/- 0.19 nM/hr); type: functional
Rattus norvegicus [10] = assay: Antithyroid activity in L-T4-induced Wistar albino rat model of hyperthyroidism assessed as serum T3 level at 10 mg/kg, po qd post 12 days of L-T4 challenge measured after 15 days in presence of [125I]-T3 by RIA (reference value: 2.31 +/- 0.53 ng/ml); type: functional
Rattus norvegicus [11] = assay: Antithyroid activity in L-T4-induced Wistar albino rat model of hyperthyroidism assessed as reduction in T3 level at 20 mg/kg, po qd post 12 days of L-T4 challenge measured after 15 days in presence of [125I]-T3 by RIA; type: functional
Rattus norvegicus [12] = assay: Antioxidant activity in L-T4-induced Wistar albino rat model of hyperthyroidism assessed as lipid peroxidation level by measuring MDA formation per mg protein at 30 mg/kg, po qd post 12 days of L-T4 challenge measured after 15 days by TBARS assay (reference value: 1.34 +/- 0.19 nM/hr); type: functional
Rattus norvegicus [13] = assay: Antithyroid activity in L-T4-induced Wistar albino rat model of hyperthyroidism assessed as inhibition of hepatic 5'-monodeiodinase 1 activity using T4 as substrate at 20 mg/kg, po qd post 12 days of L-T4 challenge measured after 15 days in presence of [125I]-T3 by RIA; type: functional, organism-based
Rattus norvegicus [14] = assay: Antithyroid activity in L-T4-induced Wistar albino rat model of hyperthyroidism assessed as serum T4 level at 30 mg/kg, po qd post 12 days of L-T4 challenge measured after 15 days in presence of [125I]-T4 by RIA (reference value: 92.14 +/- 3.45 ng/ml); type: functional
Rattus norvegicus [15] = assay: Antioxidant activity in L-T4-induced Wistar albino rat model of hyperthyroidism assessed as increase in catalase activity by measuring H2O2 utilization per mg protein at 20 mg/kg, po qd administered post 12 days of L-T4 challenge measured every 5 secs for 30 secs on day 28 by spectrophotometric method; type: functional, organism-based
Rattus norvegicus [16] = assay: Antioxidant activity in L-T4-induced Wistar albino rat model of hyperthyroidism assessed as increase in superoxide dismutase activity by measuring pyrogallol oxidization per mg protein at 20 mg/kg, po qd administered post 12 days of L-T4 challenge measured on day 28; type: functional, organism-based
Rattus norvegicus [17] = assay: Antithyroid activity in L-T4-induced Wistar albino rat model of hyperthyroidism assessed as reduction in glucose-6-phosphatase activity at 20 mg/kg, po qd post 12 days of L-T4 challenge measured after 15 days; type: functional, organism-based
Rattus norvegicus [18] = assay: Antithyroid activity in L-T4-induced Wistar albino rat model of hyperthyroidism assessed as serum T4 level at 10 mg/kg, po qd post 12 days of L-T4 challenge measured after 15 days in presence of [125I]-T4 by RIA (reference value: 92.14 +/- 3.45 ng/ml); type: functional
Rattus norvegicus [19] = organism: Rattus norvegicus; assay: animal or person; conditions: Wistar, po, read-out: INH
Description: Antithyroid activity in L-T4-induced Wistar albino rat model of hyperthyroidism assessed as reduction in T3 level at 10 mg/kg, po qd post 12 days of L-T4 challenge measured after 15 days in presence of [125I]-T3 by RIA

Rattus norvegicus [20] = organism: Rattus norvegicus; assay: animal or person; conditions: Wistar, po, read-out: INH; remark: listed apart in the source
Description: Antithyroid activity in L-T4-induced Wistar albino rat model of hyperthyroidism assessed as reduction in T4 level at 10 mg/kg, po qd post 12 days of L-T4 challenge measured after 15 days in presence of [125I]-T4 by RIA

Rattus norvegicus [21] = organism: Rattus norvegicus; assay: animal or person; conditions: Wistar, po, read-out: INH; remark: listed apart in the source
Description: Antithyroid activity in L-T4-induced Wistar albino rat model of hyperthyroidism assessed as inhibition of hepatic 5'-monodeiodinase 1 activity by measuring reduction in T3 level using T4 as substrate at 10 mg/kg, po qd post 12 days of L-T4 challenge measured after 15 days in presence of [125I]-T3 by RIA

Structure (SMILES): C[C@@H]1CC[C@@]2(OC1)O[C@H]1C[C@H]3[C@@H]4CC[C@H]5C[C@@H](O[C@@H]6O[C@H](CO)[C@H](O)[C@H](O[C@@H]7O[C@H](CO)[C@@H](O)[C@H](O)[C@H]7O[C@@H]7O[C@H](CO)[C@@H](O)[C@H](O)[C@H]7O)[C@H]6O)[C@H](O)C[C@]5(C)[C@H]4CC[C@]3(C)[C@H]1[C@@H]2C
- Activity (Rattus norvegicus [1]): 0.99 ng/mL
- Activity (Rattus norvegicus [2]): 0.31 ng/mL
- inhibition in vivo at 20 mg/kg (Rattus norvegicus [3]): 88.8%
- Activity (Rattus norvegicus [4]): Active
- inhibition in vivo at 20 mg/kg (Rattus norvegicus [5]): 75.1%
- Activity (Rattus norvegicus [6]): Active
- Activity (Rattus norvegicus [7]): 0.871 nM/h
- Activity (Rattus norvegicus [8]): 38.7 ng/mL
- Activity (Rattus norvegicus [9]): 0.312 nM/h
- Activity (Rattus norvegicus [10]): 1.91 ng/mL
- inhibition in vivo at 20 mg/kg (Rattus norvegicus [11]): 56%
- Activity (Rattus norvegicus [12]): 0.976 nM/h
- inhibition (Rattus norvegicus [13]): Active
- Activity (Rattus norvegicus [14]): 49.85 ng/mL
- Activity (Rattus norvegicus [15]): Active
- Activity (Rattus norvegicus [16]): Active
- Activity (Rattus norvegicus [17]): Active
- Activity (Rattus norvegicus [18]): 79.81 ng/mL

Structure (SMILES): CCCc1cc(=O)[nH]c(=S)[nH]1 [PROPYLTHIOURACIL]
- inhibition in vivo at 10 mg/kg (Rattus norvegicus [19]): 56.5%
- inhibition in vivo at 10 mg/kg (Rattus norvegicus [20]): 81%
- inhibition in vivo at 10 mg/kg (Rattus norvegicus [21]): 59%
